Measurements from article PMC7246923, “Inhibition of Xanthine Oxidase-Catalyzed Xanthine and 6-Mercaptopurine Oxidation by Flavonoid Aglycones and Some of Their Conjugates” (International Journal of Molecular Sciences, 2020).
Read-outs that look alike come from different tables or passages of the source.

Tests used:
[1] = target: T1, Xanthine oxidase (XO; from bovine milk) (Bos taurus, UniProt P80457); assay: XO-catalyzed xanthine oxidation (uric acid formation), HPLC; assay type: biochemical; details: for IC50 (xanthine)/IC50 (6MP): ratio of IC50 values of xanthine and 6MP assays; for IC50: substrate xanthine 5 μM, inhibitor 0–20 μM
T1 construct: Xanthine oxidase (XO; from bovine milk); purchased Sigma-Aldrich; host or cells: bovine milk
T1 sequence (P80457 whole entry): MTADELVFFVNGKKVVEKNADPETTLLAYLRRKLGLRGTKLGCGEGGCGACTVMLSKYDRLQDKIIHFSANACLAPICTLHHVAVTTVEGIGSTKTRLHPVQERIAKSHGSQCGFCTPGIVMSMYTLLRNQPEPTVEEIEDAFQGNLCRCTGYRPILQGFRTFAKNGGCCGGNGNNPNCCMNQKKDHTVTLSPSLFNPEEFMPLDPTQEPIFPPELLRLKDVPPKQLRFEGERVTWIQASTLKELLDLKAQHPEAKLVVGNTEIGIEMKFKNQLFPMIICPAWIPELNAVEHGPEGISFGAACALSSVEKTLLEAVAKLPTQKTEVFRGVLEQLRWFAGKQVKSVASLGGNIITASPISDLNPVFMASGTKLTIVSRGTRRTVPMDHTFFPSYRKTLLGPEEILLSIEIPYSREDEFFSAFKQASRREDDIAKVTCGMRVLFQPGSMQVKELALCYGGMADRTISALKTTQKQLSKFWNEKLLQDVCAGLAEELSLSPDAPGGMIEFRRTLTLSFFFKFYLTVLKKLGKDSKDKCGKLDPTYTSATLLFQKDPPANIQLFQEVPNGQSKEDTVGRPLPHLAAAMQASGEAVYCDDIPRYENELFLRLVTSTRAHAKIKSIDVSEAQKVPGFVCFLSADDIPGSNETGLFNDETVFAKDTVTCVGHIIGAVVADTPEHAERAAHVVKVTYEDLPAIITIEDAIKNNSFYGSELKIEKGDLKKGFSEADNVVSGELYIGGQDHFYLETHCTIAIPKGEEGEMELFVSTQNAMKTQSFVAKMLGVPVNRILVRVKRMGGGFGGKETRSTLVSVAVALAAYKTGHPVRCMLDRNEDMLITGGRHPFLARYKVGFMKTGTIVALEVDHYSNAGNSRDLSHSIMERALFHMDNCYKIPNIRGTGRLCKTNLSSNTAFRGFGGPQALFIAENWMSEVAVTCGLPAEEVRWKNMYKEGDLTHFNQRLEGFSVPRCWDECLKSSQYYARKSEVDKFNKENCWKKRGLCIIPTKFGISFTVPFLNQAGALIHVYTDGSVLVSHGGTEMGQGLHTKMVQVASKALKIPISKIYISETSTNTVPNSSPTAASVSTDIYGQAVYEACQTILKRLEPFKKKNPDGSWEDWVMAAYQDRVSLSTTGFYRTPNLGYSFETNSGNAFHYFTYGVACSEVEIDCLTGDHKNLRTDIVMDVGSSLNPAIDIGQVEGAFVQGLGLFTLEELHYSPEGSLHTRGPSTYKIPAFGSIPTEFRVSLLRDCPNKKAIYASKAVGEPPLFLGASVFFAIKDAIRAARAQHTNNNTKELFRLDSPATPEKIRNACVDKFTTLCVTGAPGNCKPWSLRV
Method: (§1) Chrysin-7-glucuronide (C7G) and 6-thiouric acid were purchased from Carbosynth (Berkshire, UK). Chrysin-7-sulfate (C7S) was synthetized as described. Stock solutions of flavonoids (each 2 mM) were prepared in dimethyl sulfoxide (DMSO) and stored at −20 °C.
(§2) To test the inhibitory effects of flavonoids and their metabolites on the XO-catalyzed oxidation of xanthine and 6MP, the previously reported methods were applied without modifications. […] In each experiment, solvent controls (DMSO) were used. Metabolite formation (% of control) was plotted vs. the inhibitor concentrations in decimal logarithmic scale. IC50 values were evaluated by sigmoidal fitting, employing GraphPad Prism 8 software (San Diego, CA, USA).
(§3) After the in vitro XO assays, xanthine and uric acid as well as 6MP and 6-thiouric acid were quantified by the HPLC-UV methods described in our previous report, without any modifications.

hyperuricaemic mice = details: cited from earlier work; for serum uric acid levels: orally administered; for serum uric acid concentrations: hyperuricemic mice, per os, API 50 and 100 mg/kg, KAE 50 and 100 mg/kg, LUT 100 mg/kg
[2] = target: T1, Xanthine oxidase (XO; from bovine milk); assay: XO-catalyzed 6-mercaptopurine oxidation (6-thiouric acid formation), HPLC; assay type: biochemical
Method: as §1, §2, §3

normal mice = tested on: normal mice; parameters: method as in PMID 17666819; details: per os; cited from earlier work
[3] = substrate 6MP 5 μM, inhibitor 0–20 μM, read-out: IC50(6MP)
[4] = hyperuricaemic mice, LUT 16–100 mg/kg, LUT-7-O-glucoside 50 and 100 mg/kg

For `O=c1cc(-c2ccc(O)cc2)oc2cc(O)cc(O)c12` [Apigenin, 5,7,4’-trihydroxyflavone], the “IC50 (xanthine)/IC50 (6MP)” value [1] is given as 3.00, the IC50 [1] is given as 270 nM and the “serum uric acid levels” value (hyperuricaemic mice; hyperuricaemic mice, API 175–700 mg/kg) is given as “did not affect”. The “serum uric acid concentrations” value (hyperuricaemic mice) was “significantly decreased”, the IC50 [2, 3] was 90 nM and the IC50 ([2]; substrate 6MP 5 μM, read-out: IC50 values on 6MP oxidation) was < 100 nM.
With `O=c1cc(-c2ccccc2)oc2cc(O)cc(O)c12` [Chrysin, 5,7-dihydroxyflavone] the “IC50 (xanthine)/IC50 (6MP)” value [1] was 3.18 and the IC50 [2] was 220 nM.
For `O=C(O)[C@H]1O[C@@H](Oc2cc(O)c3c(=O)cc(-c4ccccc4)oc3c2)[C@H](O)[C@@H](O)[C@@H]1O` [Chrysin-7-glucuronide, chrysin-7-glucuronide], the IC50 [1] was > 20000 nM and the IC50 [2, 3] was > 20000 nM.
For `O=c1cc(-c2ccccc2)oc2cc(OS(=O)(=O)O)cc(O)c12` [Chrysin-7-sulfate, chrysin-7-sulfate], the IC50 [1] was > 20000 nM and the IC50 [2, 3] was 2230 nM.
With `O=c1c(O)c(-c2ccc(O)c(O)c2)oc2cc(O)ccc12` [Fisetin, 3,7,3′,4′-tetrahydroxyflavone] the “IC50 (xanthine)/IC50 (6MP)” value [1] was 0.78, the IC50 [1] was 860 nM and the IC50 [2, 3] was 1100 nM.
For `COc1cc(-c2oc3cc(O)ccc3c(=O)c2O)ccc1O` [Geraldol, 3’-O-methylfisetin], the “IC50 (xanthine)/IC50 (6MP)” value [1] was 0.57, the IC50 [1] was 680 nM and the IC50 [2, 3] was 1190 nM.
In the case of `O=c1c(O)c(-c2ccc(O)cc2)oc2cc(O)cc(O)c12` [Kaempferol, 3,5,7,4′-tetrahydroxyflavone], the “serum uric acid concentrations” value (hyperuricaemic mice) is given as “significantly decreased” and the uric acid levels (normal mice) is given as “decreased”.
For `O=c1cc(-c2ccc(O)c(O)c2)oc2cc(O[C@@H]3O[C@H](CO)[C@@H](O)[C@H](O)[C@H]3O)cc(O)c12` [LUT-7-O-glucoside], the “serum uric acid levels” value (hyperuricaemic mice; [4]) is listed as “did not affect”.
In the case of `O=c1cc(-c2ccc(O)c(O)c2)oc2cc(O)cc(O)c12` [Luteolin, 5,7,3′,4′-tetrahydroxyflavone], the “IC50 (xanthine)/IC50 (6MP)” value [1] is given as 0.59, the IC50 [1] is given as 160 nM and the uric acid levels (hyperuricaemic mice; hyperuricaemic mice, i.p. administration, 50 mg/kg) is given as “slight but significant decrease”. For the same molecule, the “serum uric acid levels” value (hyperuricaemic mice; [4]) was “did not affect”, the “serum uric acid concentrations” value (hyperuricaemic mice) was “significantly decreased” and the IC50 [2, 3] was 270 nM.
